ChEMBL document CHEMBL4265896, “Design and synthesis of potent RSK inhibitors” (Bioorg Med Chem Lett, 2018)
≈ marks a conversion by molar mass, not a printed value.

Experiments:
[1] = molecular target: T1, Ribosomal protein S6 kinase alpha-3 (Homo sapiens, UniProt P51812); assay: Inhibition of RSK2 (unknown origin)
[2] = molecular target: T1, Ribosomal protein S6 kinase alpha-3; assay: Inhibition of RSK2 (unknown origin) assessed as reduction in YB1 […] phosphorylation
[3] = Solubility of the compound in PBS buffer of pH 7.0; type: physicochemical
[4] = molecular target: Fibroblast growth factor receptor 2 (Homo sapiens, UniProt P21802); assay: Inhibition of FGFR2 (unknown origin)
Fibroblast growth factor receptor 2, sequence (P21802 whole entry): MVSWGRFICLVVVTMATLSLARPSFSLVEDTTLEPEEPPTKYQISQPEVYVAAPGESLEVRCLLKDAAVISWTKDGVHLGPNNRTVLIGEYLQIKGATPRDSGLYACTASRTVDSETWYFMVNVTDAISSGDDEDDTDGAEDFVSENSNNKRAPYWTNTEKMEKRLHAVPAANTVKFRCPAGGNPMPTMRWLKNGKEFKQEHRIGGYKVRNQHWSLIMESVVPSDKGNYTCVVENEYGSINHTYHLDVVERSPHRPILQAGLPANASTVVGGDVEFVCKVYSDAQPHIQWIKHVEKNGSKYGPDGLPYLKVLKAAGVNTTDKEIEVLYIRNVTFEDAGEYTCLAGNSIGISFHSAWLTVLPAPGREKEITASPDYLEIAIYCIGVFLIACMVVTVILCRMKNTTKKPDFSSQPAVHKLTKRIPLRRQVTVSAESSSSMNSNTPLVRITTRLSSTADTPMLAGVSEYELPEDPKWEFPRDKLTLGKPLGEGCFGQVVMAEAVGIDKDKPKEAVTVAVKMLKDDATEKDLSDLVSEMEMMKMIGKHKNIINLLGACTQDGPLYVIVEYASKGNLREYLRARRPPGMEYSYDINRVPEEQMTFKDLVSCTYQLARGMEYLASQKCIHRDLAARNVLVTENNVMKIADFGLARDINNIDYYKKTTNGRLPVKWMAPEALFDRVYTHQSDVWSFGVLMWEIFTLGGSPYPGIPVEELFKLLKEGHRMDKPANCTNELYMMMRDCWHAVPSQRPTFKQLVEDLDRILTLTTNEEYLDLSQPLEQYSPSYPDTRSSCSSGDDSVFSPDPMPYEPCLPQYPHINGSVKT

[5] = molecular target: Fibroblast growth factor receptor 1 (Homo sapiens, UniProt P11362); assay: Inhibition of FGFR1 (unknown origin)
Fibroblast growth factor receptor 1, sequence (P11362 whole entry): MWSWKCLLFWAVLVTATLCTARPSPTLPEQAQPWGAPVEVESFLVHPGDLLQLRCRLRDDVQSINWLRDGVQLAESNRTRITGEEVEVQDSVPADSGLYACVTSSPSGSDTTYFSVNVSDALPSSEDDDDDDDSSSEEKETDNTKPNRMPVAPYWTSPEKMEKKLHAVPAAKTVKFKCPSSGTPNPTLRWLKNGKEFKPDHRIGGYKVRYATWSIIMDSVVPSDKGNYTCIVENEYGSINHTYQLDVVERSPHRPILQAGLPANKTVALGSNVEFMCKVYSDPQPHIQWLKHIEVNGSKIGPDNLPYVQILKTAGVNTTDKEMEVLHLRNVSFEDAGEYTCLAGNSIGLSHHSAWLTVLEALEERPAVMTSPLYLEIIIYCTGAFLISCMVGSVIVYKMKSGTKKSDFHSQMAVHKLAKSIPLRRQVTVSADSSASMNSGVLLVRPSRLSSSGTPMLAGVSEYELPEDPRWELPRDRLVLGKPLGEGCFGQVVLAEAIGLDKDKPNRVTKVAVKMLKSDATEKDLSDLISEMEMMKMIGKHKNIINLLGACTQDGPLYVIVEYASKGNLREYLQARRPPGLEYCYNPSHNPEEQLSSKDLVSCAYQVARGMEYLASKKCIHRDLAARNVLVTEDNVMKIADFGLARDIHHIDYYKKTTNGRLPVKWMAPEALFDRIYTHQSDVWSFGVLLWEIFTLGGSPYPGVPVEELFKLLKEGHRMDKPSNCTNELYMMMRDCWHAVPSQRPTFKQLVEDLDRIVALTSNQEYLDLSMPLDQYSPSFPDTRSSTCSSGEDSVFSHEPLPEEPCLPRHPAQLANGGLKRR

[6] = molecular target: Ribosomal protein S6 kinase beta-1 (Homo sapiens, UniProt P23443); assay: Inhibition of RPS6KB1 (unknown origin)
Ribosomal protein S6 kinase beta-1, sequence (P23443 whole entry): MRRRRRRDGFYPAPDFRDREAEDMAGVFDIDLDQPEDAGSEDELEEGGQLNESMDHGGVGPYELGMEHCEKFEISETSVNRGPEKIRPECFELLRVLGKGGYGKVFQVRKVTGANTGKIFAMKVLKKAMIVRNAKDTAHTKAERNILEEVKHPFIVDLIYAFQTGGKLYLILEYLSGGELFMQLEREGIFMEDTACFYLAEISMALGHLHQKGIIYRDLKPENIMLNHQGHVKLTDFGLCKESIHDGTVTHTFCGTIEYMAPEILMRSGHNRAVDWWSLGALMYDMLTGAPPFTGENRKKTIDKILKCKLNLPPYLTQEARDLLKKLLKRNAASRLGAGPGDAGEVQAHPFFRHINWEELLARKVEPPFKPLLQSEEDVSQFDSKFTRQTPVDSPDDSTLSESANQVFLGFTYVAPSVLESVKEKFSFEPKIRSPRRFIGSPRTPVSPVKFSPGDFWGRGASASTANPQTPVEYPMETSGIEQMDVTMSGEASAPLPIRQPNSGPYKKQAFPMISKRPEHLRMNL

[7] = molecular target: Vascular endothelial growth factor receptor 2 (Homo sapiens, UniProt P35968); assay: Inhibition of KDR (unknown origin)
[8] = molecular target: T2, Receptor-type tyrosine-protein kinase FLT3 (Homo sapiens, UniProt P36888); assay: Inhibition of FLT3 (unknown origin)
T2 sequence (P36888 whole entry): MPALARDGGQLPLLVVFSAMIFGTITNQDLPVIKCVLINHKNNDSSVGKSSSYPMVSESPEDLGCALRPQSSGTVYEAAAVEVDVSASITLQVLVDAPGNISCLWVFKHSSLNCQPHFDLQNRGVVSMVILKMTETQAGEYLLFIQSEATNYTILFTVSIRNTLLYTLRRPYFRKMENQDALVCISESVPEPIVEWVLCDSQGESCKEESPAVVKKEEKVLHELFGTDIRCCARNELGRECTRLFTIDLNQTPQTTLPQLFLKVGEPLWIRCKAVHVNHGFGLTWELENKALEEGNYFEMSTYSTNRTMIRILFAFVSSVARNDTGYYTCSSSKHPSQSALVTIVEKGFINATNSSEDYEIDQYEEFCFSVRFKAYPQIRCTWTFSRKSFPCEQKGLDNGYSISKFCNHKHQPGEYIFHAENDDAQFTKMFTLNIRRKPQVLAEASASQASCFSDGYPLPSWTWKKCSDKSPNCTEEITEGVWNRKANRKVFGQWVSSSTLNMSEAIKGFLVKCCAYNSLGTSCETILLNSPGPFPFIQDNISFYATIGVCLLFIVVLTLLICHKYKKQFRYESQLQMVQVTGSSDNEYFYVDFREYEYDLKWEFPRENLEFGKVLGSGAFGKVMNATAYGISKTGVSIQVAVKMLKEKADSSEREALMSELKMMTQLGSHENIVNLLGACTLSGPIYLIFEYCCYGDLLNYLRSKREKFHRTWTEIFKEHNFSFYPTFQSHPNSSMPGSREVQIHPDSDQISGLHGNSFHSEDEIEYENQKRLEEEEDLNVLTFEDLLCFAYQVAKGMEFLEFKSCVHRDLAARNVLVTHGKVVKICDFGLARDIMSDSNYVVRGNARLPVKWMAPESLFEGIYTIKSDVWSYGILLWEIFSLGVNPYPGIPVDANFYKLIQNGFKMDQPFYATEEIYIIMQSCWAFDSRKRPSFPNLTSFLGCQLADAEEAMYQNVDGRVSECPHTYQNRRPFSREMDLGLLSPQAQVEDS

[9] = Efflux ratio of permeability of the compound in human Caco2 cells; type: ADME, cell-based; conditions: Caco-2
[10] = molecular target: Tyrosine-protein kinase JAK2 (Homo sapiens, UniProt O60674); assay: Inhibition of JAK2 (unknown origin)
[11] = molecular target: T3, Tyrosine-protein kinase receptor UFO (Homo sapiens, UniProt P30530); assay: Inhibition of AXL (unknown origin)
T3 sequence (P30530 whole entry): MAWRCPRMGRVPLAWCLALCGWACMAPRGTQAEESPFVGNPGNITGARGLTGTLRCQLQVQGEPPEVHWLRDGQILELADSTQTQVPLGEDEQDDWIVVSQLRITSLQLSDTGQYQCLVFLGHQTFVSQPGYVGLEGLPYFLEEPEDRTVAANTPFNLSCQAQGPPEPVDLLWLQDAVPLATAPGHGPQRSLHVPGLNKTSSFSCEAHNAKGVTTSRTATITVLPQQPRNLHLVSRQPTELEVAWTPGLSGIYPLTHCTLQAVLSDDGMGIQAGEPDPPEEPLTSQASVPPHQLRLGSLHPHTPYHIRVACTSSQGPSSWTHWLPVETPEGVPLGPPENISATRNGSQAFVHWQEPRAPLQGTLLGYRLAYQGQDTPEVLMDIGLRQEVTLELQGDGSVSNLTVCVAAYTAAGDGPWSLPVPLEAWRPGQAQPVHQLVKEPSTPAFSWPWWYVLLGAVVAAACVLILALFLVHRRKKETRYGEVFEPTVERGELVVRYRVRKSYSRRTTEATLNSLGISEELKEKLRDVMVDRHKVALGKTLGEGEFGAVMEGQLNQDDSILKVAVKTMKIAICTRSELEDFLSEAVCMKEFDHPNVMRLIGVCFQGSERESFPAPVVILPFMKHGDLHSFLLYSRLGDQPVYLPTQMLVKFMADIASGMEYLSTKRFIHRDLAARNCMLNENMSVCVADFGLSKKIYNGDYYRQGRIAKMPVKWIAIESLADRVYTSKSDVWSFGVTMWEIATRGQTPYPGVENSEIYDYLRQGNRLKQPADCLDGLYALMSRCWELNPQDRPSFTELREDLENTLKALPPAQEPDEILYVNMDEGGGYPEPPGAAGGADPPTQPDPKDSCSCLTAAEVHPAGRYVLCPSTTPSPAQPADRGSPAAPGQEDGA

[12] = molecular target: Proto-oncogene tyrosine-protein kinase receptor Ret (Homo sapiens, UniProt P07949); assay: Inhibition of RET (unknown origin)
[13] = molecular target: Tyrosine-protein kinase JAK1 (Homo sapiens, UniProt P23458); assay: Inhibition of JAK1 (unknown origin)
Tyrosine-protein kinase JAK1, sequence (P23458 whole entry): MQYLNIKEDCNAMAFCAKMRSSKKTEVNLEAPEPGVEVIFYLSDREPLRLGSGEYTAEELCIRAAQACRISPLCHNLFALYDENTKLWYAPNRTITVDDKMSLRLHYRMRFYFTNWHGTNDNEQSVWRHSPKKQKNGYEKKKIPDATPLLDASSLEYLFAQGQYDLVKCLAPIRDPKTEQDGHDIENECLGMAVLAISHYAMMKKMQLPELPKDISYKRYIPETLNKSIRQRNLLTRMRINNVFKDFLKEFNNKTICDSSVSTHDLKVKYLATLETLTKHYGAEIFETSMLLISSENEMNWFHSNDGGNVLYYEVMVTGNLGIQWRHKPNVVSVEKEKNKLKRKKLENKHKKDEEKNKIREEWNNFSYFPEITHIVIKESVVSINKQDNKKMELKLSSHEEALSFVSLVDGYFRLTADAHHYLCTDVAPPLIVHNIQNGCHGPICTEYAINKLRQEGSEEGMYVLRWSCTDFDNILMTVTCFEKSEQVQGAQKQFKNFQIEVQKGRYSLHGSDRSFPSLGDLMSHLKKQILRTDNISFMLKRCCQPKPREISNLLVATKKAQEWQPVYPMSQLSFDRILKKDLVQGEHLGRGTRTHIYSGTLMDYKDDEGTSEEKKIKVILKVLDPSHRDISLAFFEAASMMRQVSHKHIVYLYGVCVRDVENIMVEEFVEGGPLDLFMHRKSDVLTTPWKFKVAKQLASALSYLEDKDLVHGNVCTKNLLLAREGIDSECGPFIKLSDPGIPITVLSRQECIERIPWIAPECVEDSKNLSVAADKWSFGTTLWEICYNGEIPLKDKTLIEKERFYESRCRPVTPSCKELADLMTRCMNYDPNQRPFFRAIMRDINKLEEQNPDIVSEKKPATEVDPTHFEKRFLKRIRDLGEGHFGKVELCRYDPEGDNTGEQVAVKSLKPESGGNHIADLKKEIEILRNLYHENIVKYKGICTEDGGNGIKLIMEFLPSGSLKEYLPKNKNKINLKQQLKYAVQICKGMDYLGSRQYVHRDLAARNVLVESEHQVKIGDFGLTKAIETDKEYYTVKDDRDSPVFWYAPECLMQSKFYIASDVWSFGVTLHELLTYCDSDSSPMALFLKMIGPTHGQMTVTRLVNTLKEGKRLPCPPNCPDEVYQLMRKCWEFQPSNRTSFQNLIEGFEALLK

T1 sequence (P51812 whole entry): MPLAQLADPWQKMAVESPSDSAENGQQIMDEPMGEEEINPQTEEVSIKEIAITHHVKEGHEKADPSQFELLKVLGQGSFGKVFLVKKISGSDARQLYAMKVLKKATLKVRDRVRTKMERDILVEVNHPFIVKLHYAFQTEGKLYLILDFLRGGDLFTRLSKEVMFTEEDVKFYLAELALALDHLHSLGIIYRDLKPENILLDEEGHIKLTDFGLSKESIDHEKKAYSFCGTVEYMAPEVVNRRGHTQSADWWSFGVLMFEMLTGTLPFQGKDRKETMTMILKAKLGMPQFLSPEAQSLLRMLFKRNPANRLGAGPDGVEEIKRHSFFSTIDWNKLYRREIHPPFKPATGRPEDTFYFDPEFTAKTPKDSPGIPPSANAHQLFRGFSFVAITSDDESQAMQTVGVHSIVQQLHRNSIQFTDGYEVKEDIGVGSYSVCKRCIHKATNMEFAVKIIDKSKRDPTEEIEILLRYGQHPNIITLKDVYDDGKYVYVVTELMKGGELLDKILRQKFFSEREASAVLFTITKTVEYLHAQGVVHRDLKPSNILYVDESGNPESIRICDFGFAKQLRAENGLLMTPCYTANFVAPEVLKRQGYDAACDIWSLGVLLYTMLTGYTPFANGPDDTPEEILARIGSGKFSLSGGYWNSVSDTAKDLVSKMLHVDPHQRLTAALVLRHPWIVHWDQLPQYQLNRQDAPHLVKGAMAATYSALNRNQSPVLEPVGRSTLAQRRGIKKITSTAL

| Compound | IC50 [1] [nM] | IC50 [2] [nM] | further results |
| --- | --- | --- | --- |
| Oc1ccc(-c2cn[nH]c2-c2ccc(O)cc2)cc1 | 20 | 2800 | – |
| CN1CCN(c2ccc(-c3ccncc3-c3cc(F)c(O)c(F)c3)cc2)CC1 | – | 340 | – |
| Oc1c(F)cc(-c2cnccc2-c2ccc(N3CCOCC3)cc2)cc1F | – | 210 | – |
| COc1c(F)cc(-c2cnc3[nH]ccc3c2-c2ccc(N3CCN(C)CC3)cc2)cc1F | 500 | > 20000 | – |
| CN1CCN(c2ccc(-c3c(-c4ccc(C(F)F)cc4)cnc4[nH]ccc34)cc2)CC1 | 800 | 18100 | – |
| Oc1c(F)cc(-c2cnc3[nH]ccc3c2-c2ccc(N3CCOCC3)cc2)cc1F | 2 | 50 | solubility [3]: < 0.22 µg/mL |
| CN1CCN(c2ccc(-c3c(-c4cn[nH]c4)cnc4[nH]ccc34)cc2)CC1 | 240 | 2400 | – |
| CN1CCN(c2ccc(-c3c(-c4cc(F)cc(F)c4)cnc4[nH]ccc34)cc2)CC1 | 38 | 6000 | – |
| CN1CCN(c2ccc(-c3c(-c4ccc(F)cc4)cnc4[nH]ccc34)cc2)CC1 | 1900 | > 20000 | – |
| CN1CCN(c2ccc(-c3c(-c4ccnc(F)c4)cnc4[nH]ccc34)cc2)CC1 | 1100 | > 20000 | – |
| CN1CCN(c2ccc(-c3c(-c4ccc(N)nc4)cnc4[nH]ccc34)cc2)CC1 | 810 | 7200 | – |
| Cc1ccc(-c2c(-c3cc(F)c(O)c(F)c3)cnc3[nH]ccc23)cc1 | 2 | 232 | – |
| CN1CCN(c2ccc(-c3c(-c4cc(F)c(O)c(F)c4)cnc4[nH]ccc34)cc2)CC1 | 0.3 | 54 | solubility [3]: 10.3 µg/mL (≈ 24.5 µM); IC50 [4]: < 1000 nM; IC50 [5]: < 1000 nM; IC50 [6]: 120 nM; IC50 [7]: < 1000 nM; IC50 [8]: 120 nM; efflux ratio [9]: 0.8; IC50 [10]: < 1000 nM; IC50 [11]: < 1000 nM; IC50 [12]: < 1000 nM; IC50 [13]: < 1000 nM |
